Columns and labels:
Test in all cases: relative viability (nuclei count vs DMSO), 5 days (fraction); higher = more cells survive
Dasatinib + Navitoclax = compound: Cc1nc(Nc2ncc(C(=O)Nc3c(C)cccc3Cl)s2)cc(N2CCN(CCO)CC2)n1 [Dasatinib] + CC1(C)CCC(c2ccc(Cl)cc2)=C(CN2CCN(c3ccc(C(=O)NS(=O)(=O)c4ccc(N[C@H](CCN5CCOCC5)CSc5ccccc5)c(S(=O)(=O)C(F)(F)F)c4)cc3)CC2)C1 [Navitoclax] (partner 0.5 µM)
Procedure, shortened: (§1)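 One day after seeding in 1536-well plates, lung cancer cell lines were dosed by pin tool. Dosing was either single-drug or a fixed anchor-drug dose plus five library-drug doses (not always all listed) in √10 steps. After 5 days, nuclei were stained in one fix-and-stain step and counted on 4× images, and relative viability is the nuclei count of treated wells over that of vehicle wells, given as the median of duplicate plates.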

Dasatinib + Crizotinib = compound: Cc1nc(Nc2ncc(C(=O)Nc3c(C)cccc3Cl)s2)cc(N2CCN(CCO)CC2)n1 [Dasatinib] + C[C@@H](Oc1cc(-c2cnn(C3CCNCC3)c2)cnc1N)c1c(Cl)ccc(F)c1Cl [Crizotinib] (partner 1 µM)
Procedure, shortened: as §1

XMD13-2 + Alpelisib = compound: C1CC1C(=O)NC2=NNC3=C2C=CC(=C3)C4=CC(=CC=C4)C(=O)NC5CC5 [XMD13-2] + Cc1nc(NC(=O)N2CCC[C@H]2C(N)=O)sc1-c1ccnc(C(C)(C)C(F)(F)F)c1 [Alpelisib] (partner 2 µM)
Procedure, shortened: as §1

Dasatinib + AZD7762 = compound: Cc1nc(Nc2ncc(C(=O)Nc3c(C)cccc3Cl)s2)cc(N2CCN(CCO)CC2)n1 [Dasatinib] + NC(=O)Nc1cc(-c2cccc(F)c2)sc1C(=O)N[C@H]1CCCNC1 [AZD7762] (partner 0.2 µM)
Procedure, shortened: as §1

Cell Line	relative viability (Dasatinib + Navitoclax; first compound 0.005 µM)	relative viability (Dasatinib + Navitoclax; first compound 0.01581 µM)	relative viability (Dasatinib + Navitoclax; first compound 0.05 µM)	relative viability (Dasatinib + Navitoclax; first compound 0.1581 µM)	relative viability (Dasatinib + Navitoclax; first compound 0.5 µM)	relative viability (Dasatinib + Crizotinib; first compound 0.005 µM)	relative viability (Dasatinib + Crizotinib; first compound 0.01581 µM)	relative viability (Dasatinib + Crizotinib; first compound 0.05 µM)	relative viability (Dasatinib + Crizotinib; first compound 0.1581 µM)	relative viability (Dasatinib + Crizotinib; first compound 0.5 µM)	relative viability (XMD13-2 + Alpelisib; first compound 0.05 µM)	relative viability (XMD13-2 + Alpelisib; first compound 0.1581 µM)	relative viability (XMD13-2 + Alpelisib; first compound 0.5 µM)	relative viability (XMD13-2 + Alpelisib; first compound 1.581 µM)	relative viability (XMD13-2 + Alpelisib; first compound 5 µM)	relative viability (Dasatinib + AZD7762; first compound 0.005 µM)	relative viability (Dasatinib + AZD7762; first compound 0.01581 µM)	relative viability (Dasatinib + AZD7762; first compound 0.05 µM)	relative viability (Dasatinib + AZD7762; first compound 0.1581 µM)	relative viability (Dasatinib + AZD7762; first compound 0.5 µM)
NCI-H2023	0.978	0.854	0.795	0.778	0.488	0.491	0.492	0.376	0.281	0.26	0.661	0.618	0.52	0.53	0.617					
NCI-H2342																0.469	0.384	0.383	0.341	0.315
SW 1573	0.906	0.899	0.946	0.473	0.481	0.826	0.689	0.624	0.429	0.356	1.03	0.711	1.01	0.676	0.666					
NCI-H1993	0.872	0.7	0.724	0.581	0.736	0.881	0.658	0.579	0.501	0.465	0.666	0.663	0.694	0.763	0.642	0.777	0.639	0.755	0.444	0.485
NCI-H661						1.08	1.19	0.972	0.8	0.547	0.751	0.854	0.506	0.4	0.448					
NCI-H520	0.946	0.644	0.555	0.273	0.27	0.656	0.442	0.419	0.144	0.138	0.921	0.954	0.967	0.861	0.49					
ChaGo-K-1	0.618	1.08	0.965	0.909	0.923	1.14	1.02	1	0.862	0.734						0.854	0.77	0.822	0.705	0.549
SK-MES-1	1.18		1.41	0.802	0.429	0.968	0.937	0.93	0.372	0.212	0.935	0.922	0.869	0.876	1.04					
COR-L 105	0.588	0.49	0.52	0.368	0.278	0.71	0.59	0.528	0.286	0.285	1.06	1.36	0.984	0.964	0.945					
NCI-H650						0.741	0.61	0.632	0.444	0.3	1.21	1.2	1.43	1.18	1.15	0.75	0.896	1.01	0.606	0.4
NCI-H1650	1.26	0.934	0.83	0.506	0.387	0.801	0.619	0.456	0.303	0.239										
NCI-H2009	1.23	1.12	1.3	0.761	0.235	0.947	0.936	0.684	0.314	0.141	1.23	1.14	1.22	1.15	1.23					
COR-L23	1.01	0.85	0.797	0.55	0.347	0.514	0.5	0.35	0.234	0.267	0.931	0.77	0.951	0.741	0.805					
NCI-H522																0.857	0.73	0.882	0.654	0.634
LCLC-103H						0.992	1.05	0.968	0.734	0.488	0.91	0.979	0.981	0.959	0.851	0.695	0.666	0.628	0.523	0.331
NCI-H1563						0.803	0.673	0.679	0.592	0.577	1.02	1	0.941	0.894	0.985					
NCI-H1793	0.323	0.182	0.238	0.166	0.152						0.797	0.835	0.686	0.732	0.897	0.425	0.369	0.247	0.229	0.273
NCI-H358						0.507	0.437	0.349	0.282	0.194	1.06	0.774	0.843	0.822	0.529	0.538	0.455	0.364	0.241	0.244
SW 900																0.592	0.534	0.371	0.36	0.147
SK-LU-1	0.812	0.57	0.301	0.226	0.154	0.558	0.417	0.35	0.251	0.251	1.3	1.09	1.27	0.945	0.6					
NCI-H2228	0.845	0.644	1.44	0.475	0.249	0.296	0.431	0.257	0.152	0.17	0.768	0.716	0.771	0.772	0.655					
IA-LM	0.878	0.923	1.04	0.876	0.665	1.05	1.06	1.45	0.674	0.442	0.86	0.962	0.766	0.767	0.901					
EBC-1	0.477	0.289	0.314	0.25	0.283	0.203	0.187	0.205	0.183	0.172	0.999	0.801	0.907	0.738	0.483					
NCI-H1299	1.04	1.05	1.1	0.6	0.31	0.966	0.975	0.779	0.274	0.256	1.08	1.08	1.09	1.08	1.09					
